Biological target: Vascular endothelial growth factor receptor 2 (Homo sapiens, UniProt P35968)
Sequence (P35968 whole entry): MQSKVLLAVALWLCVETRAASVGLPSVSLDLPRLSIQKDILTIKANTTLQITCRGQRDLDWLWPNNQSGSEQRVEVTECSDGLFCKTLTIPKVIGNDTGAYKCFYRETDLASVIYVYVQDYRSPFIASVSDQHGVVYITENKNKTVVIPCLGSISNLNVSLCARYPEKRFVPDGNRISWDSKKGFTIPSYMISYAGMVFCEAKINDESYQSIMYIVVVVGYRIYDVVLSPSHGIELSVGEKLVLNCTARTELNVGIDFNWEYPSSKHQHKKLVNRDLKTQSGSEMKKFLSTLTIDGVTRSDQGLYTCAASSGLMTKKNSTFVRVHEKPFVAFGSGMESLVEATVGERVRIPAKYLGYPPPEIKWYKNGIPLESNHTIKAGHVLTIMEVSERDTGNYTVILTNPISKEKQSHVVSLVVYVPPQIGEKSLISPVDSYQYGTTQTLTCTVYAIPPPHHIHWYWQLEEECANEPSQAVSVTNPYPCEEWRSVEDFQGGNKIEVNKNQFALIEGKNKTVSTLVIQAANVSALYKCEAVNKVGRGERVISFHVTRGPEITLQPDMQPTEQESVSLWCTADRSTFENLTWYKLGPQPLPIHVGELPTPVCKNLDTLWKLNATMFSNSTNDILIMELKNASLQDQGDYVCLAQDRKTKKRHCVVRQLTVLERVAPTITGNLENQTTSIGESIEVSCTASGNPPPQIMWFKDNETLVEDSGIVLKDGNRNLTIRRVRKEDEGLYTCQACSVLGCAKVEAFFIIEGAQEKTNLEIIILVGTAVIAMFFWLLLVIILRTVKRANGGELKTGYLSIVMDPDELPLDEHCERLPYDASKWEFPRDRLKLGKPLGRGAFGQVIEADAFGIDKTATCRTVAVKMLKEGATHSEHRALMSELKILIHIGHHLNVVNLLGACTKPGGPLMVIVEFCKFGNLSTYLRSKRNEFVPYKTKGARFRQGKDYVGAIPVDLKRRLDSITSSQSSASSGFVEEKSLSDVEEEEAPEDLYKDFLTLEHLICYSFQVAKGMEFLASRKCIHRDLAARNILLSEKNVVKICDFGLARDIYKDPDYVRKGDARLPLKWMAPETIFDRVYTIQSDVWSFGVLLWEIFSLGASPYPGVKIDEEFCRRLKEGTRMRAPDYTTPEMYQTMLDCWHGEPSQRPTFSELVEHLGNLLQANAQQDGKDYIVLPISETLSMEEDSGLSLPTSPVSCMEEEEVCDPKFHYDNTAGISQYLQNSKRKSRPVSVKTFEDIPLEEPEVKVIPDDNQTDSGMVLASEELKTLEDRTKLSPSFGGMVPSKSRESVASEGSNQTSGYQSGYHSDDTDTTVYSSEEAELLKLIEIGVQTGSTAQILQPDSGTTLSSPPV

SMILES | IC50
CNC(=O)c1csc2cc(Oc3ccnc4cc(C5=NCCN5C)sc34)ccc12 | 0.34 nM
COc1ccccc1NC(=O)c1ccc(CSc2nnc3c(n2)[nH]c2ccccc23)cc1 | 1.6 nM
O=C(Nc1ccc(Oc2ncnc3sc4c(c23)CCCC4)cc1)c1ccccc1 | 4.1 nM
C[C@@H]1Oc2ccc(-c3csc(NC(=O)c4cccc(Cl)c4)n3)cc2NC1=O | 3.4 nM
CCOc1ccc(Nc2cnnc(Nc3ccc(OCC)cc3)n2)cc1 | 4.1 nM
NC(=O)c1cc(-c2ccccc2)sc1NC(=O)c1ccc(OC(F)F)cc1 | 5.6 nM
O=C(COc1cccc(NC(=O)c2cccnc2)c1)Nc1ccc(Br)cc1 [ASN01107570] | 5 nM
CNC(=O)c1cc(COc2nnc(Nc3ccc(Cl)cc3)c3ccoc23)ccn1 [TELATINIB] | 6 nM

Further compounds by falling IC50, results first:

IC50 | SMILES
10 nM | Cc1nc2ccccc2n1C1CCN(CC(=O)Nc2ccccc2Br)CC1 [ASN06356088]
5.9 nM | COc1ccc(OC)c(NC(=O)c2ccc(CSc3ncnc4[nH]cnc34)cc2)c1
4.2 nM | Cc1ccc2nc(NC(=O)Cc3csc(NC(=O)Nc4cccc(Cl)c4)n3)sc2c1
2.9 nM | CCOC(=O)CSc1nc2c(c(=O)[nH]c(=O)n2C)n1Cc1cccc(C)c1

Source: ChEMBL document CHEMBL1287660, “Pharmacophore modeling and virtual screening studies for new VEGFR-2 kinase inhibitors” (Eur J Med Chem, 2010)
